Assays:
[1] = system: lambs with acute pulmonary hypertension; conditions: cited from earlier work; for pulmonary vasodilation / effect on mean arterial pressure / transpulmonary cGMP release / systemic arterial oxygenation: inhaled microparticles, awake lambs; for pulmonary vasodilation: U-46619 infused to mean pulmonary arterial pressure 35 mm Hg; for effect on mean arterial pressure / transpulmonary cGMP release / systemic arterial oxygenation: U-46619 infusion
[2] = molecular target: T1, soluble guanylate cyclase (sGC) (Homo sapiens, UniProt Q02108+Q02153); assay: sGC-HEK-cGMP assay with SNP incubation (LC/MS read-out); assay type: cell-based; conditions: 10 μM SNP; for Emax at 1 µM: 1 μM compound, read-out: HEK assay (Percent Emax at 1 μM); for Emax at 1 µM / Emax at 10 µM / Emax at 30 µM: 100% = BAY 41-2272 at 10 μM with 100 μM SNP; for Emax at 10 µM: 10 μM compound, read-out: HEK assay (Percent Emax at 10 μM); for Emax at 30 µM: 30 μM compound, read-out: HEK assay (Percent Emax at 30 μM); for Emax: maximum of full concentration-response curve, top not fitted to 100%, relative to BAY 41-2272 control, read-out: HEK assay Emax-unconstrained (Percent); for EC50: top of curve not fitted to 100%, read-out: HEK assay EC50-unconstrained
T1 construct: endogenously expressing soluble guanylate cyclase (sGC); endogenous in cells; host or cells: HEK293
T1 sequence (Q02153 1-619): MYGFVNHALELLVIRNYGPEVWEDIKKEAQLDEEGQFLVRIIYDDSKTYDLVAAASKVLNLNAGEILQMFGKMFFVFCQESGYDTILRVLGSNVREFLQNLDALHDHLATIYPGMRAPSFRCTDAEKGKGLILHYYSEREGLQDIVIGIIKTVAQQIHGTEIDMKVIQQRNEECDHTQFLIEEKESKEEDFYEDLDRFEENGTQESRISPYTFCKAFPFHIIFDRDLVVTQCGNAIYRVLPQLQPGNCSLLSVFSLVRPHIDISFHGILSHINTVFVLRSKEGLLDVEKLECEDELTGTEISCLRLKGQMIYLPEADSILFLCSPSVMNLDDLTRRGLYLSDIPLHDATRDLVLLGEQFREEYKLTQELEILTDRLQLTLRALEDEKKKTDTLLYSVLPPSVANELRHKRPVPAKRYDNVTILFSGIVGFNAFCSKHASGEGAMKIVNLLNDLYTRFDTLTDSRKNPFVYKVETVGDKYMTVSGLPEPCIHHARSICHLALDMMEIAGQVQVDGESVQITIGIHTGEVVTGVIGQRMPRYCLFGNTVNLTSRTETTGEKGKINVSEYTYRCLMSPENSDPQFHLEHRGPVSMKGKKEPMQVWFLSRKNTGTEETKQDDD
T1 sequence (Q02108 1-690): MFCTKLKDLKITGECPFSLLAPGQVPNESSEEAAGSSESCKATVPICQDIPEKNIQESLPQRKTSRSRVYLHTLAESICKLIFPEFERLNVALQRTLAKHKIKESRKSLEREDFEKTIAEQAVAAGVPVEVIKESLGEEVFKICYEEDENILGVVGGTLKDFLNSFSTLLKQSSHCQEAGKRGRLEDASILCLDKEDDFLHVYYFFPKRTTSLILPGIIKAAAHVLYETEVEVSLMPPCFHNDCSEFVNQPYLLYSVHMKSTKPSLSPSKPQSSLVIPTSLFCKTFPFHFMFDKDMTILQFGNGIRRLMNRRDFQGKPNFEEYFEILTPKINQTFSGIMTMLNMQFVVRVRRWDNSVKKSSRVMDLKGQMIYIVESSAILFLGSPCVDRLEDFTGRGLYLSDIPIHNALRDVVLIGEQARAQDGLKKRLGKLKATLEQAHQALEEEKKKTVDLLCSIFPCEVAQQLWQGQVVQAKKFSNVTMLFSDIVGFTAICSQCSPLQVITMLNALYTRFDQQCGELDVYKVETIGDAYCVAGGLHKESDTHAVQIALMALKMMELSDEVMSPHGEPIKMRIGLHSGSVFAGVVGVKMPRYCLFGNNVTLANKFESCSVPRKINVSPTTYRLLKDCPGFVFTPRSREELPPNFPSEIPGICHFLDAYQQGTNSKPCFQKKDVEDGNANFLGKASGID
Protocol: (Assay Run with SNP Incubation)
(§1) Human embryonic kidney cells (HEK293), endogenously expressing soluble guanylate cyclase (sGC), were used to evaluate the activity of test compounds. Compounds stimulating the sGC receptor should cause an increase in the intracellular concentration of cGMP. HEK 293 cells were seeded in Dulbecco's Modification of Eagle's Medium supplemented with fetal bovine serum (10% final) and L-glutamine (2 mM final) in a 200 μL volume at a density of 1×10^5 cells/well in a poly-D-lysine coated 96 well flat bottom plate and grown overnight at 37° C. Medium was aspirated and cells were washed with 1× Hank's Buffered Saline Salt Solution (200 μL). Cells were then incubated for 15 minutes at 37° C. with 200 μL of a 0.5 mM 3-isobutyl-1-methylxanthine (IBMX) solution. Test article and sodium nitroprusside solutions (x μM concentration for test article solution and 10 μM concentration for SNP solution; wherein x is one of the following concentrations);
were then added to the assay mixture (2 μL each) and the resulting mixture incubated at 37° C. for 10 minutes. After the 10 minute incubation, the assay mixture was aspirated and 0.1M HCl (200 μL) was added to the cells. The plate was incubated at 4° C. for 30 minutes in the 0.1M HCl to stop the reaction and lyse the cells. The plates were then centrifuged at 1,200 g for 5 minutes at room temperature. Supernatants were collected and transferred to a new flat bottom 96 well plate for analysis by HPLC-MS. Vehicle controls were carried out using DMSO (1%) solutions. A known sGC stimulator, BAY 41-2272, was used as the positive control. Samples were diluted with an equal volume of 1 M Ammonium Acetate (pH 7) to neutralize samples for better chromatography. A 2×cGMP standard solution was prepared in 0.1 M HCl and then diluted with an equal volume of 1 M Ammonium Acetate, with the following final concentrations in nM: 1024, 512, 256, 128, 64, 32, 16, 8, 4, 2, 1. cGMP concentrations in the test plates were determined from each sample using the LC/MS conditions shown in Table 2 below and the calculated cGMP standard curve. EC50 values were calculated from concentration-response curves generated with GraphPad Prism Software.
The biological activities of some of the compounds of Formula I or Formula Ib determined with the sGC-HEK assay with SNP incubation are summarized in Tables 3A and 3B.

[3] = molecular target: T1, soluble guanylate cyclase (sGC); assay: HEK whole cell assay using HTRF procedure (with SNP incubation); assay type: cell-based; conditions: HTRF cGMP read-out, 10 μM SNP; for Emax: relative to BAY 41-2272 at 10 μM with 100 μM SNP, read-out: HEK assay Emax-unconstrained (Percent); for EC50: top of curve not fitted to 100%, read-out: HEK assay EC50-unconstrained
Protocol: Example 2B, HEK whole cell assay using HTRF procedure (Assay Run with SNP Incubation)
as §1, with “enzyme” for “receptor”
were then added to the assay mixture (2 μL each) and the resulting mixture incubated at 37° C. for 10 minutes. After the 10 minute incubation, the assay mixture was aspirated and 0.1M HCl (200 μL) was added to the cells. The plate was incubated at 4° C. for 30 minutes in the 0.1M HCl to stop the reaction and lyse the cells. The plates were then centrifuged at 1,200 g for 5 minutes at room temperature.
cGMP levels were determined using a cGMP HTRF assay (Cisbio Product #62GM2PEC). For each sample, 5 uL of HEK assay supernatant was diluted 1:5 in HTRF kit assay diluent and transferred to a well of the assay plate, and the HTRF assay was performed according to the HTRF kit manufacturer's instructions. Sample calculations were performed using high and low controls, where high control was supernatant from HEK assay performed in the presence of 10 uM Bay 41-2272+100 uM SNP, and the low control was the supernatant from the HEK assay performed in the presence of vehicle. A cGMP standard solution was prepared in 0.1 M HCl and diluted in order to perform a cGMP standard curve using the HTRF assay. Using Mean Ratio data from the HTRF assay, sample date were normalized according to the equation: 100*(Sample−Low Control)/(High Control−Low Control). Data were fit to a 3-parameter log agonist dose response (Top (% EMax), Bottom, log EC50) using Graphpad (Prism Software). Data in Table 3C was obtained using this modified assay procedure.

Compound | Emax at 1 µM [2] [%] | Emax at 10 µM [2] [%] | Emax at 30 µM [2] [%] | Emax [2] [%] | EC50 [2] [µM] | also measured
Nc1nc(-c2nn(Cc3ccccc3F)c3ncccc23)ncc1C1CC1 [BAY 41-2272] | – | – | – | – | – | pulmonary vasodilation [1]: dose dependent pulmonary vasodilation; effect on mean arterial pressure [1]: without significant effect; transpulmonary cGMP release [1]: increased transpulmonary cGMP release
Nc1nc(-c2nn(Cc3ccccc3F)c3ncccc23)nc(N)c1N1CCOCC1 [BAY 41-8543] | – | – | – | – | – | magnitude and duration of pulmonary vasodilation induced by iNO ([1]; after inhaling microparticles, lambs): augmented; pulmonary vasodilation [1]: dose dependent pulmonary vasodilation; effect on mean arterial pressure [1]: without significant effect; systemic arterial oxygenation [1]: increased systemic arterial oxygenation; transpulmonary cGMP release [1]: increased transpulmonary cGMP release
COc1nc(-n2cc(-c3ccon3)c(Cc3ccccc3F)n2)ncc1F [Compound I-10] | 20 to 40 | 20 to 40 | 20 to 40 | 20 to 40 | 0.5 to 1 | –
OCC(O)Cn1ccc2cnc(-n3cc(-c4ccon4)c(Cc4ccccc4F)n3)nc21 (stereo not shown) [Compound I-7] | – | – | – | – | – | Emax [3]: 80 to 100%; EC50 [3]: 0.1 to 0.5 µM
O=c1onc2cnc3ccccc3n12 [ODQ, 1H-[1,2,4]oxadiazolo[4,3-a]quinoxalin-1-one] | – | – | – | – | – | pulmonary vasodilator effect of iNO ([1]; intravenous administration, lambs): markedly reduced
Nc1ccnc(-n2cc(-c3ccon3)c(Cc3ccccc3F)n2)n1 [Compound I-9] | 60 to 80 | 80 to 100 | 80 to 100 | 80 to 100 | 0.1 to 0.5 | –
O=C(O)CCCCN(CCc1ccccc1OCc1ccc(CCc2ccccc2)cc1)Cc1ccc(C(=O)O)cc1 [BAY 58-2667] | – | – | – | – | – | pulmonary vasodilation and transpulmonary cGMP release after treatment with ODQ ([1]; inhaled microparticles after intravenous ODQ, lambs): greatly enhanced; pulmonary vasodilation [1]: dose dependent pulmonary vasodilation; effect on mean arterial pressure [1]: without significant effect; systemic arterial oxygenation [1]: increased systemic arterial oxygenation; transpulmonary cGMP release [1]: increased transpulmonary cGMP release
O=c1[nH]c(-n2cc(-c3ccon3)c(Cc3ccccc3F)n2)ncc1F [Compound I-1] | 60 to 80 | 80 to 100 | 80 to 100 | 80 to 100 | 0.01 to 0.1 | –
Fc1ccccc1Cc1nn(-c2ncc(F)c(N3CCOCC3)n2)cc1-c1ccon1 [Compound I-6] | – | – | – | – | – | Emax [3]: 80 to 100%; EC50 [3]: 0.1 to 0.5 µM
CC(C)[C@@H](C(=O)O)N(C)c1nc(-n2cc(-c3ccon3)c(Cc3ccccc3F)n2)ncc1F [Compound I-4] | 80 to 100 | 100 to 120 | 100 to 120 | 100 to 120 | 0.01 to 0.1 | –
OCC(CO)Nc1nc(-n2cc(-c3ccon3)c(Cc3ccccc3F)n2)ncc1F [Compound I-5] | – | – | – | – | – | Emax [3]: 80 to 100%; EC50 [3]: 0.1 to 0.5 µM
